Reference: patent US8518912B2, “Phosphonic acid derivates and their use as P2Y12 receptor antagonists” (Actelion Pharmaceuticals Ltd., priority 2008, dated 2013)

system: ADP induced platelet aggregation; test: Light transmission platelet aggregation assay; type: cell-based; conditions: human platelet-rich plasma; ADP at 1-5 μM final concentration; 2 minutes preincubation at 37° C.
Protocol: After obtaining informed consent, blood was obtained by vein puncture from healthy volunteers using a thrombin inhibitor as the anticoagulant. Platelet-rich plasma (PRP) was removed after centrifugation at 20° C. for 10 minutes at 200 g and allowed to equilibrate at 37° C. Part of the blood was centrifuged for 10 minutes at 5000 g to yield platelet poor plasma (PPP).
Light transmission platelet aggregation was carried out according to the method of Born & Cross (G. V. R. Born and M. J. Cross, J. Physiol. (1963), 168, 178-195) using a Chronolog lumiaggregometer with stirring (1000 rpm) at 37° C. PRP was placed into the cuvette and allowed to equilibrate at 37° C. for two minutes. In a first phase, the ADP concentration to give optimal extent of aggregation was determined for the PRP of each donor. In a second phase, PRP was incubated with inhibitors for 2 minutes at 37° C. prior to the addition of the agonist ADP at 1-5 μM final concentration. The change in light transmission, indicative of ongoing aggregation, was monitored during 5 minutes. The extent of platelet aggregation was calculated relative to light absorbance of PRP (not aggregated) and PPP (full aggregation).

Structure (SMILES)	IC50
CCOC(=O)N1CCN(C(=O)[C@H](CP(=O)(O)O)NC(=O)c2cc(N3CC[C@H](OC)C3)nc(-c3ccccc3)n2)CC1 [Example 1, 4-((R)-2-{[6-((S)-3-methoxy-pyrrolidin-1-yl)-2-phenyl-pyrimidine-4-carbonyl]-amino}-3-phosphono-propionyl)-piperazine-1-carboxylic acid ethyl ester]	10 nM
CCCCOC(=O)N1CCN(C(=O)[C@H](CC(=O)O)NC(=O)c2cc(N3CC[C@H](OC)C3)nc(-c3ccccc3)n2)CC1 [reference compound]	91 nM
CCOC(=O)N1CCN(C(=O)[C@H](Cc2ccc(P(=O)(O)O)cc2)NC(=O)c2cc(N3CC[C@H](OC)C3)nc(-c3ccccc3)n2)CC1 [Example 59, 4-[(S)-2-{[6-((S)-3-Methoxy-pyrrolidin-1-yl)-2-phenyl-pyrimidine-4-carbonyl]-amino}-3-(4-phosphono-phenyl)-propionyl]-piperazine-1-carboxylic acid ethyl ester]	4 nM
CCOC(=O)N1CCN(C(=O)[C@H](CCP(=O)(O)O)NC(=O)c2cc(N3CC[C@H](OC)C3)nc(-c3ccccc3)n2)CC1 [Example 4, 4-((S)-2-{[6-((S)-3-methoxy-pyrrolidin-1-yl)-2-phenyl-pyrimidine-4-carbonyl]-amino}-4-phosphono-butyryl)-piperazine-1-carboxylic acid ethyl ester]	21 nM
CCCCOC(=O)N1CCN(C(=O)[C@H](CCP(=O)(O)O)NC(=O)c2cc(N3CC[C@H](OC)C3)nc(-c3ccccc3)n2)CC1 [Example 5, 4-((S)-2-{[6-((S)-3-methoxy-pyrrolidin-1-yl)-2-phenyl-pyrimidine-4-carbonyl]-amino}-4-phosphono-butyryl)-piperazine-1-carboxylic acid butyl ester]	1 nM
CCOC(=O)N1CCN(C(=O)[C@H](CC(=O)O)NC(=O)c2cc(N3CC[C@H](OC)C3)nc(-c3ccccc3)n2)CC1 [reference compound]	138 nM
CCOC(=O)N1CCN(C(=O)[C@H](CCC(=O)O)NC(=O)c2cc(N3CC[C@H](OC)C3)nc(-c3ccccc3)n2)CC1 [reference compound]	32 nM
CCCCOC(=O)N1CCN(C(=O)[C@H](CP(=O)(O)O)NC(=O)c2cc(N3CC[C@H](OC)C3)nc(-c3ccccc3)n2)CC1 [Example 2, 4-((R)-2-{[6-((S)-3-methoxy-pyrrolidin-1-yl)-2-phenyl-pyrimidine-4-carbonyl]-amino}-3-phosphono-propionyl)-piperazine-1-carboxylic acid butyl ester]	8 nM
CCCCOC(=O)N1CCN(C(=O)[C@H](CCC(=O)O)NC(=O)c2cc(N3CC[C@H](OC)C3)nc(-c3ccccc3)n2)CC1 [reference compound]	21 nM
CCOC(=O)N1CCN(C(=O)[C@H](Cc2ccc(C(=O)O)cc2)NC(=O)c2cc(N3CC[C@H](OC)C3)nc(-c3ccccc3)n2)CC1 [reference compound]	226 nM
